Article PMC6412019, “Discovery of NV-5138, the first selective Brain mTORC1 activator” (Scientific Reports, 2019)
“Also recorded” adds a separate entry of the source.

Tests used:
[1] = molecular target: T1, Sestrin3 (Homo sapiens, UniProt P58005); experiment: Cellular thermal shift assay (CETSA), intracellular Sestrin3 in HEK-293T cells; assay type: cell-based; details: 300 µM, 30 min, leucine-starved HEK293T cells
T1 construct: endogenous in cells; host or cells: HEK-293T
T1 sequence (P58005 1-492): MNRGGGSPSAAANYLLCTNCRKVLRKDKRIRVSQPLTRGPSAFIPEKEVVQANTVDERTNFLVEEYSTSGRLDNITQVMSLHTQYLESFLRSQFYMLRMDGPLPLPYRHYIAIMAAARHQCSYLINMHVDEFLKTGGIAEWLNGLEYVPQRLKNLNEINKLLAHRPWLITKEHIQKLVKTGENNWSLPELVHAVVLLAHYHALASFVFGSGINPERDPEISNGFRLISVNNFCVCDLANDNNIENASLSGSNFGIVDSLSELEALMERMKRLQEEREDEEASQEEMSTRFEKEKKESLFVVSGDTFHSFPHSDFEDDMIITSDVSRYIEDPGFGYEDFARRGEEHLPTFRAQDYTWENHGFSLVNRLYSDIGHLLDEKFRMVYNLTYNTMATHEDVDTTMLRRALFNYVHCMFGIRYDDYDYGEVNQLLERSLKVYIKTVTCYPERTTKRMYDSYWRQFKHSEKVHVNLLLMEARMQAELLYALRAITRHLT
Method: (§1) Expression of flag-WDR24 allows for immunoprecipitation of the Sestrin2/GATOR2 complex from amino acid-starved cells with an anti-flag antibody. […] Finally, to determine whether Sestrins and the GATOR pathway are required for NV-5138 activity, HEK-293T cells null for all three Sestrin isoforms or the GATOR1 component Nprl3 were obtained.
CETSA was performed as previously described. […] Cells were then collected, centrifuged for 3 min at 300 g at room-temperature (RT), washed with PBS, centrifuged again, and finally resuspended in 1 ml of RT PBS containing EDTA-free protease-inhibitor tablets (Roche). 100 µl of each cell suspension was heated at the noted temperature for 3 min, samples were then placed on the bench at RT for 3 min before being flash-frozen in liquid nitrogen. To lyse the cells, samples were put through two cycles of freeze-thawing followed by centrifugation at 20,000 g for 20 min at 4 °C. 80 µl of the resulting supernatant was denatured and, resolved by SDS-PAGE. Membranes were imaged using the LI-COR imaging system. Antibodies used are listed in Supplementary Information.

[2] = tested on: Synapsin1, GluR1 and PSD95; experiment: Synaptic proteins in rat prefrontal cortex synaptoneurosomes (immunoblot); assay type: in vivo; details: 24 h after single 160 mg/kg PO
Method: We investigated the activation of mTORC1 in the brain further by determining the time course of mTORC1 activation following a single administration of NV-5138. […] The decrease in mTORC1 signaling in the NV-5138 treated group 24 h following administration while significant was not consistently observed. […] It should be noted that while the activation of mTORC1 in the prefrontal cortex correlated with compound exposure, the increased expression of synaptic proteins was observed well after compound levels have dropped and mTORC1 activity was back to baseline/vehicle levels.
After compound administration, animals were sacrificed by decapitation using a guillotine, immediately Specific regions of the brain were quickly microdissected, tissues collected, and flash frozen in liquid nitrogen. Peripheral tissues and all brain were homogenized using MP homogenizer in Lysis Buffer (Cell lysis buffer: 1% Triton X-100, 50 mM HEPES pH 7.4, 100 mM NaCl, 2 mM EDTA, 10 mM Beta-glycerophosphate, 10 mM Sodium pyrophosphate, and 1 protease inhibitor) at 4 °C. Synaptic proteins and mTORC1 analyses in each brain region were conducted on crude synaptoneurosome preparations as previously described. Equal amounts of total protein from each sample were denatured and, resolved by SDS-PAGE. Membranes were imaged using the LI-COR imaging system. […]

[3] = tested on: NMDA receptors expressed in Xenopus laevis oocytes; experiment: Two electrode voltage-clamp electrophysiology of NMDA receptors in oocytes; assay type: cell-based; details: 300 µM final concentration; data not shown
Method: (§2) While mTORC1 activation by NV-5138 appears dependent upon an intact Sestrins/GATOR2 pathway and not upon protein incorporation or transamination by BCAT, NV-5138 was tested for off-target activity in the Eurofins/Cerep panel of over 100 potential targets. The selectivity panel included AMPA, kainate and NMDA receptor isoforms (Supplementary Table 2a–c). […] As observed in the Eurofins/Cerep panel, there was no effect of NV-5138 at 300 µM final concentration (data not shown).

[4] = molecular target: T2, Sestrin2/GATOR2 interaction (Homo sapiens, UniProt P58004); experiment: Cell-free Sesn2/WDR24 (GATOR2) interaction assay on immunoprecipitates; assay type: biochemical; details: added to immunoprecipitated complexes from amino acid-starved cells for 10 min
T2 construct: expressed in transfected cells; host or cells: HEK-293T stably expressing Flag-WDR24; Sestrin2 and the other GATOR2 subunits endogenous
T2 sequence (P58004 1-480): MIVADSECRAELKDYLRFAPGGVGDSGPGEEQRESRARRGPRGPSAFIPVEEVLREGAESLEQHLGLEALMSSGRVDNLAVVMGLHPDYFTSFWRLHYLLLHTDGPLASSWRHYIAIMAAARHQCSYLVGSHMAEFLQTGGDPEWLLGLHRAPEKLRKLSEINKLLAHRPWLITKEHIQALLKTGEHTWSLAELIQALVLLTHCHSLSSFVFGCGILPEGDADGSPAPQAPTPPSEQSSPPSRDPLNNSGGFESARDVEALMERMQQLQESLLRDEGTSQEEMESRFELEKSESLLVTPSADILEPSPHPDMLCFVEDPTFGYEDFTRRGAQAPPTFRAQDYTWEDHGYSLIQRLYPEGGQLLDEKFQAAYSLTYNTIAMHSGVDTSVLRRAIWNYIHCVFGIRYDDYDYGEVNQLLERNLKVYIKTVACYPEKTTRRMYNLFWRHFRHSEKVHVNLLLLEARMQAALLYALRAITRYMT
Method: as §1
Cell lysates were prepared as previously described. Lysates were cleared by centrifugation at 13,200 rpm at 4 °C for 8 min. For anti-FLAG IPs, the FLAG-M2 affinity gel was added to approximately 2 mg of lysates and incubated with rotation for 3 h at 4 °C. Following IP, the beads were washed one time with Triton wash buffer containing 500 mM NaCl. […] After compound incubation, IPs were collected by centrifugation. Immunoprecipitated proteins were denatured and, resolved by SDS-PAGE. Membranes were imaged using the LI-COR imaging system. Reagents and antibodies used are listed in Supplementary Information.

[5] = tested on: panel of 107 adverse drug effect targets; experiment: Eurofins/Cerep off-target selectivity panel; details: up to 300 µM; threshold >50% binding/response; incl. AMPA, kainate and NMDA receptor isoforms
Method: as §2
NV-5138 was tested in duplicate at a concentration of 300 µM for potential interaction with a panel of 107 adverse drug effect targets including 21 transporters, receptors, ion channels and enzymes expressed in the CNS (Eurofins Pharma Discovery Services). The threshold to exclude a significant interaction was set as a binding/response of >50%.

SMILES	change of melting temperature of intracellular Sestrin3 [1]	synaptic proteins Synapsin1, GluR1 and PSD95 versus vehicle [2]	functional inhibition of maximally-activated NMDA receptors [3]	disruption of Sestrin2/GATOR2 interaction, cell-free [4]	off-target activity in selectivity panel [5]
CC(C)C[C@H](N)C(=O)O [Leucine, L-leucine, reference compound]	neither NV-5138 nor leucine changed the melting temperature				
CC(C)(C[C@H](N)C(=O)O)C(F)F [NV-5138, (S)-2-amino-5,5-difluoro-4,4-dimethylpentanoic acid]	neither NV-5138 nor leucine changed the melting temperature; also recorded: does not impact the melting temperature	significant increase	no effect	rapidly disrupts the Sestrin2/GATOR2 interaction in a dose-dependent manner	no activity against any target
